Data on 74 molecules can be found in PubChem BioAssay AID1996.

Molecules are shown by their SMILES. ≈ marks a conversion by molar mass, not a printed value.

For this series the following is noted: buffer; pH 7.4; 200.0 µM.
The kinetic solubility is the concentration staying in solution when a stock, usually in DMSO, is diluted into the medium. With `CSc1ccccc1C(=O)Nc1ccc2c(c1)CCC2`, the kinetic solubility was determined as 16.8 µg/mL (≈ 59.3 µM).
To `COc1ccc(CNC(=O)c2cc(C(=O)C3CC3)c[nH]2)cc1` belongs 2 µg/mL (≈ 6.7 µM); to `CCc1ccc(CN(C)C(C)C(=O)NCc2ccccc2)cc1` (centres undefined), 36.5 µg/mL (≈ 118 µM); to `CC(c1ccccc1)N1C(=O)/C(=C/c2ccncc2)SC1=S` (centres undefined), 1.3 µg/mL (≈ 3.98 µM).
Next, `CC(=O)NC(C(=O)N1CCC(c2nc3ccccc3s2)CC1)C(C)C` (centres undefined): 51.1 µg/mL (≈ 142 µM); `Cc1cccc(N2C(=O)c3ccccc3C2=O)n1`: > 35.7 µg/mL.
To `Cc1ccc(C(=O)NCc2ccc3c(c2)CCO3)cc1C` belongs 31.2 µg/mL (≈ 111 µM); to `Cn1c(=O)c(C(N)=S)cn(-c2ccccc2)c1=O`, 25.5 µg/mL (≈ 97.6 µM); to `O=C(NC1CCCCC1)C(=O)c1c[nH]c2ccccc12`, 1.1 µg/mL (≈ 4.07 µM).
As for `CCOc1ccc(NC(=O)CN2C(=O)NC3(CCCCCC3)C2=O)cc1`, the kinetic solubility is > 53.9 µg/mL.
In the case of `CCCC1(C(=O)OCC)NC(c2ccco2)C2C(=O)N(C)C(=O)C21` (centres undefined), the solubility (kinetic) was found to be 46.2 µg/mL (≈ 138 µM).
`NC(=O)C1CCN(CCS(=O)(=O)c2ccc(Cl)cc2)CC1`: the solubility (kinetic) was > 49.6 µg/mL.
To `Cc1cc(C(=O)NC2CCCc3ccccc32)ccc1[N+](=O)[O-]` (centres undefined) belongs 10.3 µg/mL (≈ 33.2 µM); to `Cc1ccc(OCC(=O)N(C)C2CCCCC2)c([N+](=O)[O-])n1`, > 46.1 µg/mL.
To `O=S(=O)(Nc1cccc(S(=O)(=O)N2CCCCCC2)c1)c1ccc(F)cc1F` belongs > 64.6 µg/mL.
To `Cc1c(C=O)c2cc(OCc3ccccc3)ccc2n1C` belongs < 0.6 µg/mL; to `Cc1ncc([N+](=O)[O-])n1CC(=O)Nc1ccc(F)c(F)c1`, 6.4 µg/mL (≈ 21.6 µM); to `O=C(NCc1cccnc1)c1ccccc1NC(=O)c1c(F)cccc1F`, > 55.1 µg/mL.
Consider `O=C(CSc1cccc[n+]1[O-])NC1CCCCCCC1`, for which the kinetic solubility came to 39.3 µg/mL (≈ 133 µM).
Next, `O=c1c2ccccc2nc(/C=C/c2ccccc2)n1-c1ccc(O)cc1`: 1.6 µg/mL (≈ 4.7 µM).
To `COc1ccc(/C(C)=N\O)cc1OC` belongs 16.9 µg/mL (≈ 86.6 µM).
Next, `Cc1onc(-c2c(F)cccc2Cl)c1C(=O)Nc1cccc(S(=O)(=O)N2CCOCC2)c1`: 37.8 µg/mL (≈ 78.8 µM); `S=C(NCCCCc1ccccc1)NCc1ccccc1`: 7 µg/mL (≈ 23.5 µM).
In turn, `O=C(CSc1nc2ncc(Cl)cc2[nH]1)N1CCC(Cc2ccccc2)CC1` displayed a kinetic solubility of 1 µg/mL (≈ 2.49 µM).
To `Cc1ccc(C)c(Cn2c(=O)n(C)c(=O)c3sccc32)c1` belongs 0.4 µg/mL (≈ 1.33 µM); to `C=CCC(=O)N1CCCC(CO)(Cc2ccc(F)cc2F)C1` (centres undefined), 41.8 µg/mL (≈ 135 µM).
For `CC(C)(C)N(Cc1cc2ccccc2[nH]c1=O)C(=O)c1cccc([N+](=O)[O-])c1`, the kinetic solubility amounted to 1.4 µg/mL (≈ 3.69 µM).
To `Nc1ccccc1SC/C=C/CSc1ccccc1N` belongs 12.8 µg/mL (≈ 42.3 µM).
To `OC(CNCCc1c[nH]c2ccccc12)c1ccccc1` (centres undefined) belongs 37 µg/mL (≈ 132 µM); to `CCCN1CCCC(C(=O)c2cc(C)c(OC)c(C)c2)C1` (centres undefined), 39 µg/mL (≈ 135 µM); to `COc1ccccc1NC(=O)/C=C/C(=O)O`, > 33.2 µg/mL.
Next, `COC(=O)c1[nH]c2cccc(OC)c2c1NC(=O)CCN1CCSCC1`: 54.6 µg/mL (≈ 145 µM); `COc1ccc(Br)c(C(=O)NC(C)(C)CO)c1`: > 45.3 µg/mL.
Molecule `CCCCOc1ccc(CC2CCC(=O)NC2=O)cc1` (centres undefined) returned a solubility (kinetic) of 10.2 µg/mL (≈ 37 µM).
To `N/C(=N\OC(=O)Nc1ccccc1)c1ccno1` belongs 24.2 µg/mL (≈ 98.3 µM); to `CC1CCN(Cc2cc(=O)oc3cc(O)c(Cl)cc23)CC1`, > 46.2 µg/mL; to `CC(C)c1ccc(OCC(=O)N2CCc3ccccc3C2)cc1`, 9 µg/mL (≈ 29.1 µM).
To `CCc1ccc(C(C)NC(=O)C2CCCC2)cc1` (centres undefined) belongs 18.8 µg/mL (≈ 76.6 µM).
To `O=C(c1ccccn1)c1ccc2ccccc2n1` belongs 28.8 µg/mL (≈ 123 µM).
Turning to `CC(OC(=O)c1ccc(S(=O)(=O)NCc2ccco2)cc1)C(=O)Nc1ccccc1` (centres undefined), the solubility (kinetic) was 7.4 µg/mL (≈ 17.3 µM).
For `O=C(c1ccccc1)c1cccn1CC(=O)N1CCc2ccccc2C1`, the solubility (kinetic) came out at 41.4 µg/mL (≈ 120 µM).
Next, `Cn1c(=O)c(C(=O)NC2CCCCCC2)c(O)c2ccccc21`: < 0.3 µg/mL.
Next, `Cc1nc([N+](=O)[O-])cn1CC(O)c1ccccc1` (centres undefined): > 37.1 µg/mL.
Next, `Cl.NCCNc1ccc([N+](=O)[O-])cc1`: > 32.6 µg/mL; `CCOc1ccccc1NC(=O)c1ccccc1NC(=O)c1ccco1`: < 0.4 µg/mL.
`CC1CCCC(C)N1C(=O)CSc1nc2ccccc2c(=O)[nH]1` (centres undefined) showed a solubility (kinetic) of 27.6 µg/mL (≈ 83.3 µM).
To `NC(=O)COC(=O)c1c2c(nc3ccccc13)CCCC2` belongs 39.4 µg/mL (≈ 139 µM); to `O=C(c1csc(Nc2cccc3ccccc23)n1)N1CCCC1`, 13.1 µg/mL (≈ 40.5 µM); to `COC(=O)c1cc(COC(=O)c2nc3nc(C)cc(C)n3n2)oc1C`, > 51.6 µg/mL.
As to `COC(=O)CCC(=O)Nc1cccc([N+](=O)[O-])c1`, the solubility (kinetic) was > 37.8 µg/mL.
Consider `Cc1ccc(S(=O)(=O)NCC[C@@]2(C)C3CCC2(C)C(=O)C3)cc1` (some centres undefined), for which the kinetic solubility is > 50.3 µg/mL.
Next, `O=C(O)/C=C/C(=O)Nc1ccc(OC(F)(F)F)cc1Br`: > 53.1 µg/mL; `Cc1nc(C)c(C(=O)C2=C(O)C(=O)N(CCN(C)C)C2c2ccco2)s1` (centres undefined): > 56.3 µg/mL; `CCCOC(=O)c1ccc(NC(=O)Cc2cccs2)cc1`: 24 µg/mL (≈ 79.1 µM).
To `CC(OC(=O)/C(C#N)=C/c1ccco1)C(=O)N(C)c1ccccc1` (centres undefined) belongs 47.8 µg/mL (≈ 147 µM); to `O=[N+]([O-])c1ccc(CN2C=NS(=O)(=O)c3ccccc32)cc1`, > 47.6 µg/mL.
Next, `OCCN1CCN(C(=S)Nc2ccccc2)CC1`: > 39.8 µg/mL.
The molecule `O=C(c1ccccc1F)n1c2c(c3ccccc31)CCCC2` displayed a solubility (kinetic) of 0.8 µg/mL (≈ 2.73 µM).
On to `O=C(NCCS(=O)(=O)NCC1CCCO1)c1ccccc1` (centres undefined), for which the solubility (kinetic) is > 46.9 µg/mL.
Consider `Cc1cc(C(=O)CN2C(=O)NC3(CCC(C)CC3)C2=O)c(C)n1C` (centres undefined), for which the solubility (kinetic) turned out to be 13.3 µg/mL (≈ 40.1 µM).
To `Cc1ccc(CCC(=O)Nc2ccc(C#N)cc2)o1` belongs 37 µg/mL (≈ 146 µM); to `Cc1ccc(C(=O)N2CCOCC2)c(F)c1F`, 33.9 µg/mL (≈ 141 µM); to `Cc1ccccc1S(=O)(=O)NCc1ccc(N2CCN(C)CC2)cc1`, 53.1 µg/mL (≈ 148 µM).
To `CCn1cc(CNC(=S)Nc2cccc3ccccc23)cn1` belongs > 46.6 µg/mL; to `O=C(NCc1ccco1)c1ccc(Cl)cc1[N+](=O)[O-]`, > 42.1 µg/mL; to `Cc1c(C(=O)CN2CCN(c3ccccc3)CC2)c2ccccc2n1C`, 39.6 µg/mL (≈ 114 µM).
To `O=C(COc1ccc([N+](=O)[O-])cc1Cl)NCCN1C(=O)CSC1=O` belongs > 56.1 µg/mL; to `Cc1c(Cl)cccc1NC(=O)CCC(=O)c1cccs1`, 11.9 µg/mL (≈ 38.7 µM); to `O=c1[nH]sc2cc(F)ccc12`, 22.7 µg/mL (≈ 134 µM).
With `CC1(C)CC(=O)C2=C(C1)Nc1ccccc1[S@]2=O`, the solubility (kinetic) was > 39.2 µg/mL.
To `Cc1ccc2[nH]c(=O)c(-c3noc(CC(C)C)n3)cc2c1` belongs 5.1 µg/mL (≈ 18 µM); to `O=C(/C=C/c1ccc(F)cc1)NCCCn1ccnc1`, > 41 µg/mL; to `CCC(=O)Nc1nc(NCc2ccccc2OC)n(-c2ccccc2)n1`, > 52.7 µg/mL.
Next, `Cc1nc2ccccc2n1CC(=O)OCC(=O)N1CCC(C)CC1`: > 49.4 µg/mL.
